Laboratory results published in PubChem BioAssay AID2060905 (Molecular Pharmacology Branch, DTP, NCI, 2025).

System: 282377-053-R-J1-PDC complex spheroid viability
Assay: Anticancer human tumor 282377-053-R-J1-PDC patient-derived colon adenocarcinoma cell line growth inhibition [RAS]
Settings: for IC50: curve of first compound; for viability, T/C: stronger effect = lower value; active means viability on the fitted dose curve at most 10% of control; inactive means the rest
Summary of the method: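 Tumour cells grown as complex spheroids with HUVEC endothelial cells and mesenchymal stem cells, treated with RAS pathway inhibitor combinations. Each agent spans half-log steps from near clinical Cmax, or 10 microM where Cmax is unknown.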

[1] = second compound 0.00316 µM, first compound 0.0316 µM
[2] = second compound 0.00316 µM, first compound 0.1 µM
[3] = second compound 0.00316 µM, first compound 0.316 µM
[4] = second compound 0.00316 µM, first compound 1 µM
[5] = second compound 0.00316 µM, first compound 3.16 µM
[6] = second compound 0.00316 µM, first compound 10 µM
[7] = second compound 0.01 µM, first compound 0.0316 µM
[8] = second compound 0.01 µM, first compound 0.1 µM
[9] = second compound 0.01 µM, first compound 0.316 µM
[10] = second compound 0.01 µM, first compound 1 µM
[11] = second compound 0.01 µM, first compound 3.16 µM
[12] = second compound 0.01 µM, first compound 10 µM
[13] = second compound 0.0316 µM, first compound 0.0316 µM
[14] = second compound 0.0316 µM, first compound 0.1 µM
[15] = second compound 0.0316 µM, first compound 0.316 µM
[16] = second compound 0.0316 µM, first compound 1 µM
[17] = second compound 0.0316 µM, first compound 3.16 µM
[18] = second compound 0.0316 µM, first compound 10 µM
[19] = second compound 0.1 µM, first compound 0.0316 µM
[20] = second compound 0.1 µM, first compound 0.1 µM
[21] = second compound 0.1 µM, first compound 0.316 µM
[22] = second compound 0.1 µM, first compound 1 µM
[23] = second compound 0.1 µM, first compound 3.16 µM
[24] = second compound 0.1 µM, first compound 10 µM
[25] = second compound 0.316 µM, first compound 0.0316 µM
[26] = second compound 0.316 µM, first compound 0.1 µM
[27] = second compound 0.316 µM, first compound 0.316 µM
[28] = second compound 0.316 µM, first compound 1 µM
[29] = second compound 0.316 µM, first compound 3.16 µM
[30] = second compound 0.316 µM, first compound 10 µM
[31] = second compound 1 µM, first compound 0.0316 µM
[32] = second compound 1 µM, first compound 0.1 µM
[33] = second compound 1 µM, first compound 0.316 µM
[34] = second compound 1 µM, first compound 1 µM
[35] = second compound 1 µM, first compound 3.16 µM
[36] = second compound 1 µM, first compound 10 µM
[37] = second compound 0.00316 µM, first compound 0.00316 µM
[38] = second compound 0.00316 µM, first compound 0.01 µM
[39] = second compound 0.01 µM, first compound 0.00316 µM
[40] = second compound 0.01 µM, first compound 0.01 µM
[41] = second compound 0.0316 µM, first compound 0.00316 µM
[42] = second compound 0.0316 µM, first compound 0.01 µM
[43] = second compound 0.1 µM, first compound 0.00316 µM
[44] = second compound 0.1 µM, first compound 0.01 µM
[45] = second compound 0.316 µM, first compound 0.00316 µM
[46] = second compound 0.316 µM, first compound 0.01 µM
[47] = second compound 1 µM, first compound 0.00316 µM
[48] = second compound 1 µM, first compound 0.01 µM
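Further: spheroids exposed to agents for seven days before readout.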
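Wherever viability, T/C is given: luminescence viability as percent of DMSO vehicle control wells.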

CC(C)NCC(C(=O)N1CCN(c2ncnc3c2C(C)CC3O)CC1)c1ccc(Cl)cc1 (stereo not given) + C=CC(=O)N1CCN(c2nc(OCC3CCCN3C)nc3c(F)c(-c4nc(N)cc(C)c4C(F)(F)F)c(Cl)cc23)C(C)C1
> 10000 nM: IC50 (second compound 0.00316 µM) | IC50 (second compound 0.01 µM) | IC50 (second compound 0.0316 µM) | IC50 (second compound 0.1 µM) | IC50 (second compound 0.316 µM) | IC50 (second compound 1 µM)
inactive: viability, T/C [1] 104% | viability, T/C [2] 108% | viability, T/C [3] 96.2% | viability, T/C [4] 94.1% | viability, T/C [5] 88.8% | viability, T/C [6] 84.7% | viability, T/C [7] 99.3% | viability, T/C [8] 107% | viability, T/C [9] 83.2% | viability, T/C [10] 110% | viability, T/C [11] 89.5% | viability, T/C [12] 75.6% | viability, T/C [13] 98.2% | viability, T/C [14] 99.3% | viability, T/C [15] 89.3% | viability, T/C [16] 97.3% | viability, T/C [17] 91.8% | viability, T/C [18] 85.4% | viability, T/C [19] 97.9% | viability, T/C [20] 105% | viability, T/C [21] 98.7% | viability, T/C [22] 95.8% | viability, T/C [23] 82.7% | viability, T/C [24] 79.8% | viability, T/C [25] 101% | viability, T/C [26] 96.7% | viability, T/C [27] 96.2% | viability, T/C [28] 98% | viability, T/C [29] 101% | viability, T/C [30] 84.8% | viability, T/C [31] 100% | viability, T/C [32] 88.5% | viability, T/C [33] 118% | viability, T/C [34] 78.9% | viability, T/C [35] 68.7% | viability, T/C [36] 76%

CC(C)n1nc(-c2ccc3oc(N)nc3c2)c2c(N)ncnc21 + C=CC(=O)N1CCN(c2nc(OCC3CCCN3C)nc3c(F)c(-c4nc(N)cc(C)c4C(F)(F)F)c(Cl)cc23)C(C)C1
inactive: viability, T/C (second compound 0.00316 µM, first compound 0.000316 µM) 96.6% | viability, T/C (second compound 0.00316 µM, first compound 0.001 µM) 86.9% | viability, T/C [37] 80% | viability, T/C [38] 87.7% | viability, T/C [1] 62.8% | viability, T/C [2] 54.5% | viability, T/C (second compound 0.01 µM, first compound 0.000316 µM) 85.3% | viability, T/C (second compound 0.01 µM, first compound 0.001 µM) 81% | viability, T/C [39] 74.5% | viability, T/C [40] 87% | viability, T/C [7] 68.8% | viability, T/C [8] 47.8% | viability, T/C (second compound 0.0316 µM, first compound 0.000316 µM) 92.2% | viability, T/C (second compound 0.0316 µM, first compound 0.001 µM) 98.3% | viability, T/C [41] 87.5% | viability, T/C [42] 82.5% | viability, T/C [13] 97.5% | viability, T/C [14] 47.7% | viability, T/C (second compound 0.1 µM, first compound 0.000316 µM) 81.7% | viability, T/C (second compound 0.1 µM, first compound 0.001 µM) 105% | viability, T/C [43] 91% | viability, T/C [44] 78.3% | viability, T/C [19] 77.5% | viability, T/C [20] 45.7% | viability, T/C (second compound 0.316 µM, first compound 0.000316 µM) 110% | viability, T/C (second compound 0.316 µM, first compound 0.001 µM) 103% | viability, T/C [45] 109% | viability, T/C [46] 68.3% | viability, T/C [25] 61.9% | viability, T/C [26] 48.6% | viability, T/C (second compound 1 µM, first compound 0.000316 µM) 99.9% | viability, T/C (second compound 1 µM, first compound 0.001 µM) 85.1% | viability, T/C [47] 112% | viability, T/C [48] 67.7% | viability, T/C [31] 55.4% | viability, T/C [32] 61.9%
85.9 nM: IC50 (second compound 0.1 µM)
> 100 nM: IC50 (second compound 0.00316 µM) | IC50 (second compound 0.316 µM) | IC50 (second compound 1 µM)
94.1 nM: IC50 (second compound 0.0316 µM)
89.8 nM: IC50 (second compound 0.01 µM)

CC(Nc1ccc2c(c1)OCCn1cc(N3C(=O)OCC3C(F)F)nc1-2)C(N)=O (stereo not given) + C=CC(=O)N1CCN(c2nc(OCC3CCCN3C)nc3c(F)c(-c4nc(N)cc(C)c4C(F)(F)F)c(Cl)cc23)C(C)C1
inactive: viability, T/C [1] 100% | viability, T/C [2] 93.8% | viability, T/C [3] 94.3% | viability, T/C [4] 82.6% | viability, T/C [5] 78.9% | viability, T/C [6] 70.1% | viability, T/C [7] 105% | viability, T/C [8] 89.1% | viability, T/C [9] 79.6% | viability, T/C [10] 82.4% | viability, T/C [11] 89.9% | viability, T/C [12] 81.5% | viability, T/C [13] 91.1% | viability, T/C [14] 86.9% | viability, T/C [15] 87.1% | viability, T/C [16] 88.9% | viability, T/C [17] 77.6% | viability, T/C [18] 86.1% | viability, T/C [19] 101% | viability, T/C [20] 94.1% | viability, T/C [21] 95.5% | viability, T/C [22] 82.2% | viability, T/C [23] 102% | viability, T/C [24] 76.7% | viability, T/C [25] 104% | viability, T/C [26] 92.8% | viability, T/C [27] 100% | viability, T/C [28] 94.3% | viability, T/C [29] 78.2% | viability, T/C [30] 78.4% | viability, T/C [31] 105% | viability, T/C [32] 102% | viability, T/C [33] 92% | viability, T/C [34] 93.8% | viability, T/C [35] 76% | viability, T/C [36] 83.8%
> 10000 nM: IC50 (second compound 0.00316 µM) | IC50 (second compound 0.01 µM) | IC50 (second compound 0.0316 µM) | IC50 (second compound 0.1 µM) | IC50 (second compound 0.316 µM) | IC50 (second compound 1 µM)

C[C@@H](NC(=O)c1ncnc(N)c1Cl)c1ncc(C(=O)Nc2cc(C(F)(F)F)c(Cl)cn2)s1 + C=CC(=O)N1CCN(c2nc(OCC3CCCN3C)nc3c(F)c(-c4nc(N)cc(C)c4C(F)(F)F)c(Cl)cc23)C(C)C1
> 10000 nM: IC50 (second compound 0.00316 µM) | IC50 (second compound 0.01 µM) | IC50 (second compound 0.0316 µM) | IC50 (second compound 0.1 µM) | IC50 (second compound 0.316 µM) | IC50 (second compound 1 µM)
inactive: viability, T/C [1] 99% | viability, T/C [2] 101% | viability, T/C [3] 95.4% | viability, T/C [4] 88.4% | viability, T/C [5] 69.5% | viability, T/C [6] 66.1% | viability, T/C [7] 84.1% | viability, T/C [8] 105% | viability, T/C [9] 98% | viability, T/C [10] 80.7% | viability, T/C [11] 82.2% | viability, T/C [12] 76.4% | viability, T/C [13] 84.9% | viability, T/C [14] 78.4% | viability, T/C [15] 89.4% | viability, T/C [16] 84.7% | viability, T/C [17] 80.9% | viability, T/C [18] 57.6% | viability, T/C [19] 106% | viability, T/C [20] 98.7% | viability, T/C [21] 99.9% | viability, T/C [22] 92.3% | viability, T/C [23] 66% | viability, T/C [24] 66.1% | viability, T/C [25] 92.5% | viability, T/C [26] 118% | viability, T/C [27] 98.1% | viability, T/C [28] 81.6% | viability, T/C [29] 78.2% | viability, T/C [30] 92.3% | viability, T/C [31] 104% | viability, T/C [32] 90.3% | viability, T/C [33] 122% | viability, T/C [34] 76.5% | viability, T/C [35] 85% | viability, T/C [36] 82.5%

O=C(c1ccc(F)c(F)c1Nc1ccc(I)cc1F)N1CC(O)([C@@H]2CCCCN2)C1 + C=CC(=O)N1CCN(c2nc(OCC3CCCN3C)nc3c(F)c(-c4nc(N)cc(C)c4C(F)(F)F)c(Cl)cc23)C(C)C1
141 nM: IC50 (second compound 1 µM)
130 nM: IC50 (second compound 0.0316 µM)
inactive: viability, T/C [37] 90.2% | viability, T/C [38] 88.3% | viability, T/C [1] 77.2% | viability, T/C [2] 41.4% | viability, T/C [3] 32.6% | viability, T/C [4] 18.4% | viability, T/C [39] 102% | viability, T/C [40] 94% | viability, T/C [7] 68.8% | viability, T/C [8] 52.3% | viability, T/C [9] 31.6% | viability, T/C [10] 17.7% | viability, T/C [41] 88.5% | viability, T/C [42] 87.3% | viability, T/C [13] 81.3% | viability, T/C [14] 56.1% | viability, T/C [15] 28.9% | viability, T/C [16] 20.7% | viability, T/C [43] 95.6% | viability, T/C [44] 86.2% | viability, T/C [19] 95.1% | viability, T/C [20] 66.3% | viability, T/C [21] 32.9% | viability, T/C [22] 21.1% | viability, T/C [45] 101% | viability, T/C [46] 95.8% | viability, T/C [25] 87.2% | viability, T/C [26] 57.8% | viability, T/C [27] 32.2% | viability, T/C [28] 17.9% | viability, T/C [47] 98.3% | viability, T/C [48] 93.7% | viability, T/C [31] 98.5% | viability, T/C [32] 55.7% | viability, T/C [33] 35.5% | viability, T/C [34] 18%
145 nM: IC50 (second compound 0.316 µM)
104 nM: IC50 (second compound 0.01 µM)
176 nM: IC50 (second compound 0.1 µM)
80.8 nM: IC50 (second compound 0.00316 µM)
